Measured values from patent publication US11299715B2, “Use of iNOS inhibitors to increase viral yield in culture” (priority 2013, dated 2022).

Tests used:
[1] = system: rAAV-GFP vector; experiment: rAAV production by rHSV-rep2/cap2 and rHSV-EGFP co-infection of 293 cells; format: cell-based, AAV
Description: 293 cells (2.5×10^6) were simultaneously co-infected with both rHSV-rep2/cap2 and rHSV-EGFP vectors as described by Kang et al., Gene Ther (2009) 16:229-239. At 2-4 hr post infection, infectious medium was exchanged with DMEM+10% FBS equivalent to double the preinfection culture volume. At the time of harvest, the cell pellet was frozen at −80° C. DRP titers were quantified by real-time polymerase chain reaction (qPCR) in a96-well block thermocycler (Applied Biosystems; 7500 Real Time PCR system). Crude samples were subjected to three cycles of freezing and thawing, then incubated in the presence of Benzonase (250 U/ml), 2 mM MgCl2, 1% final concentration protein grade Tween 80 (Calbiochem) and incubated at 37° C. for 60 min, followed by 0.25% Trypsin (Gibco) digestion at 50° C. for 60 min. Finally, treatment with DNase I (50 U/ml; Promega) at 37° C. for 30 min, and then denatured at 95° C. for 20 min. Linearized plasmidpDC67/+SV40 was used to generate standard curves. The primer-probe set was specific for the simian virus 40 (SV40) poly(A) sequence: rAAV-F: 5′-[…]-3′ (SEQ ID NO:4); rAAV-R: 5′-[…]-3′ (SEQ ID NO:5); rAAV-Probe: 5′ 6-FAM-[…]-TAMRA-3′ (SEQ ID NO:6).
In order to determine whether the presence of ATA during HSV production impacted the yield of rAAV virions produced using HSV vectors, the following experiment was performed showing rAAV titers affected by ATA residue present from rHSV-1 stocks produced in 293 cells (FIG. 5A). […] One-way ANOVA; Tukey's-test:*p<0.05; 20 μM ATA vs. No ATA; n=4 independent experiments.
This effect was not observed when the ATA concentrations were higher then 20 μM (FIG. 5B).

[2] = SABiosciences (QIAGEN) Jak-Stat RT-PCR Microarray in 293 cells; format: cell-based, human; settings: listed as printed as NOS1, 240911_at
Description: 6×10e5 293 cells (from AGTC) were infected with wtHSV-1 McIntyre strain at MOI 1 in the presence of DMEM & 10% FBS with or without 50 uM ATA and 1-2 hours and diluted to 40% with DMEM & 10% FBS (final ATA concentration of 20 uM). Triplicate total RNA samples were harvested 24 hrs later using Qiagen RNeasy mini kit and DNase treated on the column and eluted. Eluate RNA triplicate samples were combined and photospectrometer O.D. readings were performed on the eluate at 260 and 280 nm to determine concentration. Sample RNA was converted into template cDNA using SABiosciences RT2 first strand kit. The cDNA was then used in the Human JAK/STAT Signaling Pathway PCR Array (PAHS-039A).

Compound: O=C(O)C1=CC(=C(c2ccc(O)c(C(=O)O)c2)c2ccc(O)c(C(=O)O)c2)C=CC1=O [ATA, 5-((3-carboxy-4-hydroxyphenyl)(3-carboxy-4-oxo-2,5-cyclohexadien-1-ylidene)methyl)-2-hydroxybenzoic acid]
- rAAV titer, ATA spiked into 293 cell media during co-infection ([1]; 10 μM ATA, 2 hrs co-infection step): increase
- rAAV titers using HSV stock prepared with 20 μM ATA ([1]; 20 μM ATA added during infection): slightly increased
- rAAV titer increase at higher spiked ATA concentrations ([1]; ATA higher than 20 μM spiked into 293 cell media): not observed
- influence of ATA in rHSV-1 stocks on rAAV yield ([1]; ATA present in rHSV-1 stocks): did not negatively influence
- increase of rAAV DRP/ml titer versus No ATA control ([1]; rHSV-rep2/cap2 stock prepared with 20 μM ATA (Step 1), about 3 μM ATA during rAAV production, n=4): 1.3 times
- rAAV titer with rHSV-rep2/cap2 stock prepared with 12 μM ATA ([1]; stock prepared with 12 μM ATA, n=4): No significant rAAV titer increase
- expression, ATA (Jak-Stat RT-PCR Microarray) ([2]; ATA alone): 1.02
- expression, HSV + ATA (Jak-Stat RT-PCR Microarray) ([2]; HSV + ATA, HSV alone 1.71): 1.5
